The text below walks through data of BindingDB's records for doi:10.1016/j.bmc.2008.10.052 (Universidade Federal De Santa Maria, 2008).

Molecules are shown by their SMILES.

Cruzipain, sequence (P25779 whole entry, the tested form may be a part): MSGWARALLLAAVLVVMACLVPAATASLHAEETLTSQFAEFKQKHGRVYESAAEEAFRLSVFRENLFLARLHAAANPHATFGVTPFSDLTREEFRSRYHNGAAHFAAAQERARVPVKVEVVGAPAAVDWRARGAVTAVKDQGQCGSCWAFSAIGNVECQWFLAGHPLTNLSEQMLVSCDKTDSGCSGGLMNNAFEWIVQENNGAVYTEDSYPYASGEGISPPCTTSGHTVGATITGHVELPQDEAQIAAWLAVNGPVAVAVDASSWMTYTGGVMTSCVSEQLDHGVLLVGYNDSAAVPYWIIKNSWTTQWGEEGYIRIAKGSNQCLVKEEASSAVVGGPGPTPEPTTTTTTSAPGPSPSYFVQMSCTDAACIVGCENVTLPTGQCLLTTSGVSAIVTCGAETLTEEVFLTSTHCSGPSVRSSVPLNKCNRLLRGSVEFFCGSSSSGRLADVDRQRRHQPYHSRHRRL

This test has as its target Cruzipain (Trypanosoma cruzi, UniProt P25779). The experiment in a line: Inhibition of Trypanosoma cruzi C-terminal truncated cruzain expressed in DH5alpha Escherichia coli by well-microplate spectrophotometry.
What is called IC50 is the midpoint of a concentration-inhibition curve. Low readings indicate higher potency, high ones lower potency. In turn, `COc1ccccc1CN=Nc1nc(C)cc(C(F)(F)F)n1` [2-(N'-2-Methoxy-benzylidenehydrazino)-6-methyl-4-trifluoromethyl-pyri-midine] yielded a 50% inhibitory concentration (IC50) of more than 150 µM. For `Cc1ccccc1CN=Nc1nccc(C(F)(F)F)n1` [2-(N'-2-Methyl-benzylidenehydrazino)-4-trifluoromethyl-pyrimidine], the IC50 is more than 100 µM. Then `Cc1cc(C(F)(F)F)nc(N=NCc2ccccc2C)n1` [2-(N'-2-Methyl-benzylidenehydrazino)-6-methyl-4-trifluoromethyl-pyrimidine], with more than 100 µM. The molecule `Cc1ccc(CN=Nc2nccc(C(F)(F)F)n2)cc1` [2-(N'-4-Methyl-benzylidenehydrazino)-4-trifluoromethyl-pyrimidine] came in with a half-inhibitory concentration (IC50) of more than 100 µM. In the case of `O=[N+]([O-])c1ccc(CN=Nc2nccc(C(F)(F)F)n2)cc1` [2-(N'-4-Nitro-benzylidenehydrazino)-4-trifluoromethylpyrimidine] it was 100 µM; in that of `Cc1cc(C(F)(F)F)nc(N=NCc2ccc(Cl)cc2)n1` [2-(N'-4-chloro-benzylidenehydrazino)-6-methyl-4-trifluoro-methyl-pyrimidine], 100 µM. Then `COc1ccc(CN=Nc2nccc(C(F)(F)F)n2)cc1` [2-(N'-4-methoxy-benzylidenehydrazino)-4-trifluoromethyl-pyrimidine], with more than 100 µM; and `FC(F)(F)c1ccnc(N=NCc2ccccc2)n1` [2-(N'-Benzylidenehydrazino)-4-trifluoromethylpyrimidine], with more than 150 µM.
